These results are taken from patent US10143731B2, “Peptides and combination of peptides for use in immunotherapy against various cancers” (immatics biotechnologies GmbH, priority 2015, dated 2018).

In one test the test system is HLA-A*24. The experiment in a line: MHC binding assay by UV-ligand exchange and beta2m ELISA, HLA-A*24. Further details: species or system human. Particulars: binding to HLA-A*24 ranged by peptide exchange yield (UV-ligand exchange, β2m ELISA). From the text: MHC Binding Assays Candidate peptides for T cell based therapies according to the present invention were further tested for their MHC binding capacity (affinity). The individual peptide-MHC complexes were produced by UV-ligand exchange, where a UV-sensitive peptide is cleaved upon UV-irradiation, and exchanged with the peptide of interest as analyzed. Only peptide candidates that can effectively bind and stabilize the peptide-receptive MHC molecules prevent dissociation of the MHC complexes. To determine the yield of the exchange reaction, an ELISA was performed based on the detection of the light chain (β2m) of stabilized MHC complexes. The assay was performed as generally described in Rodenko et al. (Rodenko et al., 2006).
96 well MAXISorp plates (NUNC) were coated over night with 2 ug/ml streptavidin in PBS at room temperature, washed 4× and blocked for 1 h at 37° C. in 2% BSA containing blocking buffer. Refolded HLA-A*02:01/MLA-001 monomers served as standards, covering the range of 15-500 ng/ml. Peptide-MHC monomers of the UV-exchange reaction were diluted 100 fold in blocking buffer. Samples were incubated for 1 h at 37° C., washed four times, incubated with 2 ug/ml HRP conjugated anti-β2m for 1 h at 37° C., washed again and detected with TMB solution that is stopped with […]. Absorption was measured at 450 nm. Candidate peptides that show a high exchange yield (preferably higher than 50%, most preferred higher than 75%) are generally preferred for a generation and production of antibodies or fragments thereof, and/or T cell receptors or fragments thereof, as they show sufficient avidity to the MHC molecules and prevent dissociation of the MHC complexes.
In general terms: An ELISA detects its analyte on a solid surface through an enzyme-linked reagent.

In the next test the test system is CD8+ T cells. The experiment in a line: In vitro T-cell priming assay (aAPCs loaded with peptide/MHC and anti-CD28, multimer staining readout). The conditions noted are these: for Wells (in vitro immunogenicity of HLA class I peptides): CD8+ T cells of healthy donors, three stimulation cycles with peptide/MHC and anti-CD28 coated beads; for Wells positive [%]: in vitro immunogenicity of HLA class I peptides. In kind it is cell-based, human. The method, then:
In an aspect, the peptides are pre-screened for immunogenicity before being included in the warehouse. By way of example, and not limitation, the immunogenicity of the peptides included in the warehouse is determined by a method comprising in vitro T-cell priming through repeated stimulations of CD8+ T cells from healthy donors with artificial antigen presenting cells loaded with peptide/MHC complexes and anti-CD28 antibody.
In order to obtain information regarding the immunogenicity of the TUMAPs of the present invention, the inventors performed investigations using an in vitro T-cell priming assay based on repeated stimulations of CD8+ T cells with artificial antigen presenting cells (aAPCs) loaded with peptide/MHC complexes and anti-CD28 antibody.
In order to perform in vitro stimulations by artificial antigen presenting cells loaded with peptide-MHC complex (pMHC) and anti-CD28 antibody, the inventors first isolated CD8+ T cells from fresh HLA-A*02 leukapheresis products via positive selection using CD8 microbeads (Miltenyi Biotec, Bergisch-Gladbach, Germany) of healthy donors obtained from the University clinics Mannheim, Germany, after informed consent.
PBMCs and isolated CD8+ lymphocytes were incubated in T-cell medium (TCM) until use consisting of RPMI-Glutamax (Invitrogen, Karlsruhe, Germany) supplemented with 10% heat inactivated human AB serum (PAN-Biotech, Aidenbach, Germany), 100 U/ml Penicillin/100 μg/ml Streptomycin (Cambrex, Cologne, Germany), 1 mM sodium pyruvate (CC Pro, Oberdorla, Germany), 20 μg/ml Gentamycin (Cambrex). 2.5 ng/ml IL7 (PromoCell, Heidelberg, Germany) and 10 U/ml IL-2 (Novartis Pharma, Nürnberg, Germany) were also added to the TCM at this step.
Generation of pMHC/anti-CD28 coated beads, T-cell stimulations and readout was performed in a highly defined in vitro system using four different pMHC molecules per stimulation condition and 8 different pMHC molecules per readout condition.
The purified co-stimulatory mouse IgG2a anti human CD28 Ab 9.3 (Jung et al., 1987) was chemically biotinylated using Sulfo-N-hydroxysuccinimidobiotin as recommended by the manufacturer (Perbio, Bonn, Germany). Beads used were 5.6 μm diameter streptavidin coated polystyrene particles (Bangs Laboratories, Illinois, USA).
pMHC used for positive and negative control stimulations were A*0201/MLA-001 (peptide […] (SEQ ID NO. 303) from modified Melan-A/MART-1) and A*0201/DDX5-001 ([…] from DDX5, SEQ ID NO. 304), respectively.
800.000 beads/200 μl were coated in 96-well plates in the presence of 4×12.5 ng different biotin-pMHC, washed and 600 ng biotin anti-CD28 were added subsequently in a volume of 200 μl. Stimulations were initiated in 96-well plates by co-incubating 1×10^6 CD8+ T cells with 2×10^5 washed coated beads in 200 μl TCM supplemented with 5 ng/ml IL-12 (PromoCell) for 3 days at 37° C. Half of the medium was then exchanged by fresh TCM supplemented with 80 U/ml IL-2 and incubating was continued for 4 days at 37° C. This stimulation cycle was performed for a total of three times. For the pMHC multimer readout using 8 different pMHC molecules per condition, a two-dimensional combinatorial coding approach was used as previously described (Andersen et al., 2012) with minor modifications encompassing coupling to 5 different fluorochromes. Finally, multimeric analyses were performed by staining the cells with Live/dead near IR dye (Invitrogen, Karlsruhe, Germany), CD8-FITC antibody clone SK1 (BD, Heidelberg, Germany) and fluorescent pMHC multimers. For analysis, a BD LSRII SORP cytometer equipped with appropriate lasers and filters was used. Peptide specific cells were calculated as percentage of total CD8+ cells. Evaluation of multimeric analysis was done using the FlowJo software (Tree Star, Oregon, USA). In vitro priming of specific multimer+CD8+ lymphocytes was detected by comparing to negative control stimulations.

For “181 (LYLDIINLF; listed as Homo sapiens) [compound 181]”, the Peptide exchange result with HLA-A*24 is reported as “++++ (> = 75% = ++++)”.

In the case of “274 (AYLHSHALI; listed as Homo sapiens) [compound 274]”, in the test with HLA-A*24, the Peptide exchange entry is “++++ (> = 75% = ++++)”.

For the substance “296 (TYVDSSHTI; listed as Homo sapiens) [compound 296]”, the “Wells (in vitro immunogenicity of HLA class I peptides)” value in the test with CD8+ T cells is recorded as “+ (<20% = +)”.

For “292 (GMMTAILGV; listed as Homo sapiens) [compound 292]”, the “Wells (in vitro immunogenicity of HLA class I peptides)” value in the test with CD8+ T cells is reported as “+ (<20% = +)”.

For “277 (VYQGHTALL; listed as Homo sapiens) [compound 277]”, the Peptide exchange entry with HLA-A*24 is listed as “++++ (> = 75% = ++++)”.

As to “276 (VYGFQWRHF; listed as Homo sapiens) [compound 276]”, the Peptide exchange entry in the test with HLA-A*24 is “++++ (> = 75% = ++++)”.

Take “267 (KYMVYPQTF; listed as Homo sapiens) [compound 267]”: the Peptide exchange entry with HLA-A*24 is “++++ (> = 75% = ++++)”.

Consider “207 (AYVVFVSTL; listed as Homo sapiens) [compound 207]”, for which the “Wells positive [%]” value in the test on CD8+ T cells is listed as “+ (<20% = +)”.

As to “300 (AYVLRLETL; listed as Homo sapiens) [compound 300]”, in the test on CD8+ T cells, the “Wells (in vitro immunogenicity of HLA class I peptides)” value is recorded as “+ (<20% = +)”.

Take “282 (KFVDSTFYL; listed as Homo sapiens) [compound 282]”: the Peptide exchange result with HLA-A*24 is recorded as “++++ (> = 75% = ++++)”.

Take “90 (FLQDLEQRL; listed as Homo sapiens) [compound 90]”: the “Wells positive [%]” value in the test on CD8+ T cells is recorded as “+ (<20% = +)”.

Take “29 (YLLDPSITL; listed as Homo sapiens) [compound 29]”: the “Wells positive [%]” value with CD8+ T cells is given as “+ (<20% = +)”.

For the substance “217 (FFPPTRQMGLLF; listed as Homo sapiens) [compound 217]”, the Peptide exchange result with HLA-A*24 is recorded as “++++ (> = 75% = ++++)”.

As for “31 (TITETTVEV; listed as Homo sapiens) [compound 31]”, the “Wells positive [%]” value in the test with CD8+ T cells was “+ (<20% = +)”.

In the case of “197 (EYSLFPGQVVI; listed as Homo sapiens) [compound 197]”, the “Wells positive [%]” value with CD8+ T cells is listed as “+ (<20% = +)”.

For the substance “35 (FLLPFSTVYL; listed as Homo sapiens) [compound 35]”, in the test with CD8+ T cells, the “Wells positive [%]” value was “+ (<20% = +)”.

“289 (KYPVEWAKF; listed as Homo sapiens) [compound 289]”: the Peptide exchange result in the test on HLA-A*24 is on record as “++++ (> = 75% = ++++)”.

As to “5 (GIVAHIQEV; listed as Homo sapiens) [compound 5]”, in the test with CD8+ T cells, the “Wells positive [%]” value was “+ (<20% = +)”.

In the case of “141 (FLDKVLVAA; listed as Homo sapiens) [compound 141]”, the “Wells positive [%]” value in the test with CD8+ T cells is “+ (<20% = +)”.

“179 (MYDSYWRQF; listed as Homo sapiens) [compound 179]”: the Peptide exchange entry in the test with HLA-A*24 is “++++ (> = 75% = ++++)”.

“26 (ALQEELTEL; listed as Homo sapiens) [compound 26]”: the “Wells positive [%]” value with CD8+ T cells is given as “+ (<20% = +)”.

Consider “210 (IYTMIYRNL; listed as Homo sapiens) [compound 210]”, for which the Peptide exchange entry with HLA-A*24 is “++++ (> = 75% = ++++)”.

For the substance “285 (HYPPVQVLF; listed as Homo sapiens) [compound 285]”, in the test with CD8+ T cells, the “Wells positive [%]” value is given as “+ (<20% = +)”.

For “192 (SYALLTYMI; listed as Homo sapiens) [compound 192]”, the Peptide exchange entry in the test on HLA-A*24 is “++++ (> = 75% = ++++)”.

For the substance “186 (IFPQFLYQF; listed as Homo sapiens) [compound 186]”, the Peptide exchange entry with HLA-A*24 was “++++ (> = 75% = ++++)”.

Take “202 (VYWDSAGAAHF; listed as Homo sapiens) [compound 202]”: the Peptide exchange result in the test with HLA-A*24 is “++++ (> = 75% = ++++)”.

For the substance “168 (KYQDILETI; listed as Homo sapiens) [compound 168]”, the Peptide exchange entry in the test with HLA-A*24 is reported as “++++ (> = 75% = ++++)”.

Turning to “271 (LYHDIFSRL; listed as Homo sapiens) [compound 271]”, the Peptide exchange entry with HLA-A*24 was “++++ (> = 75% = ++++)”.

For the substance “184 (VFQNFPLLF; listed as Homo sapiens) [compound 184]”, the Peptide exchange entry in the test with HLA-A*24 was “++++ (> = 75% = ++++)”.

On to “175 (YYEVHKELF; listed as Homo sapiens) [compound 175]”, for which the Peptide exchange entry in the test with HLA-A*24 is listed as “++++ (> = 75% = ++++)”.

“280 (RYPDNLKHLYL; listed as Homo sapiens) [compound 280]”: the Peptide exchange result with HLA-A*24 is given as “++++ (> = 75% = ++++)”.

As to “211 (YYLEVGKTLI; listed as Homo sapiens) [compound 211]”, the Peptide exchange result with HLA-A*24 is on record as “++++ (> = 75% = ++++)”.

Regarding “272 (QYLQDAYSF; listed as Homo sapiens) [compound 272]”, the Peptide exchange result in the test with HLA-A*24 is “++++ (> = 75% = ++++)”.

With “177 (VYPWLGALL; listed as Homo sapiens) [compound 177]”, in the test with HLA-A*24, the Peptide exchange result was “++++ (> = 75% = ++++)”.

Regarding “173 (IYSWILDHF; listed as Homo sapiens) [compound 173]”, the Peptide exchange entry in the test on HLA-A*24 was “++++ (> = 75% = ++++)”.

With “172 (TYTTVPRVAF; listed as Homo sapiens) [compound 172]”, the Peptide exchange entry in the test with HLA-A*24 is reported as “++++ (> = 75% = ++++)”.

“278 (RYISDQLFTNF; listed as Homo sapiens) [compound 278]”: the Peptide exchange result in the test on HLA-A*24 is “++++ (> = 75% = ++++)”.

Regarding “228 (KYTSWYVAL; listed as Homo sapiens) [compound 228]”, in the test with HLA-A*24, the Peptide exchange entry was “++++ (> = 75% = ++++)”.

Consider “195 (TYSVSFPMF; listed as Homo sapiens) [compound 195]”, for which the Peptide exchange result in the test on HLA-A*24 is on record as “++++ (> = 75% = ++++)”.

Regarding “227 (IFLDYEAGTLSF; listed as Homo sapiens) [compound 227]”, the Peptide exchange entry in the test on HLA-A*24 is reported as “++++ (> = 75% = ++++)”.

Consider “160 (VYTLDIPVL; listed as Homo sapiens) [compound 160]”, for which the Peptide exchange entry with HLA-A*24 is on record as “++++ (> = 75% = ++++)”.

As for “193 (RFHPTPLLL; listed as Homo sapiens) [compound 193]”, the Peptide exchange entry in the test with HLA-A*24 is “++++ (> = 75% = ++++)”.

Regarding “161 (IYLVSIPEL; listed as Homo sapiens) [compound 161]”, the Peptide exchange entry with HLA-A*24 is “++++ (> = 75% = ++++)”.

In the case of “187 (TYLRDQHFL; listed as Homo sapiens) [compound 187]”, the Peptide exchange entry with HLA-A*24 is “++++ (> = 75% = ++++)”.

With “166 (YYVESGKLF; listed as Homo sapiens) [compound 166]”, the Peptide exchange result with HLA-A*24 is “++++ (> = 75% = ++++)”.

As for “216 (QYSSVFKSL; listed as Homo sapiens) [compound 216]”, the Peptide exchange result in the test on HLA-A*24 is on record as “++++ (> = 75% = ++++)”.
